In article PMC4581874 (PLoS ONE, 2015):

Columns and labels:
CDK9/cyclin T1 (h) = biological target: T1, CDK9/cyclin T1 (h) (Homo sapiens, UniProt P50750); test: Kinase profile, CDK9/cyclin T1; type: biochemical; details: mean ± S.D.
T1 construct: purchased Millipore (now Eurofins) KinaseProfiler / IC50 Profiler
Method: (§1) All kinase assays were carried out using KinaseProfiler^TM and IC50 Profiler^TM (Millipore UK Ltd., Dundee, UK. Now Eurofins Scientific, Dundee, UK). All IC50 data were presented as the mean values. The Curves obtained to determine IC50 values were shown in Supporting Information (S1 Fig).

MAPK1 (h) = biological target: T2, MAPK1 (h) (Homo sapiens, UniProt P27361); test: Kinase profile, MAPK1; type: biochemical; details: mean ± S.D.
T2 construct: purchased Millipore (now Eurofins) KinaseProfiler / IC50 Profiler
Method: as §1

CaMKIV (h) = biological target: T3, CaMKIV (h) (Homo sapiens, UniProt Q16566); test: Kinase profile, CaMKIV; type: biochemical; details: mean ± S.D.
T3 construct: purchased Millipore (now Eurofins) KinaseProfiler / IC50 Profiler
Method: as §1

AMPKα1 (h) = biological target: T4, AMPKα1 (h) (Homo sapiens, UniProt Q13131); test: Kinase profile, AMPKα1; type: biochemical; details: mean ± S.D.
T4 construct: purchased Millipore (now Eurofins) KinaseProfiler / IC50 Profiler
Method: as §1

EGFR = EGFR (Homo sapiens, UniProt P00533); test: In vitro kinase assay, EGFR; type: biochemical
Method: All kinase assays were carried out using KinaseProfiler^TM and IC50 Profiler^TM (Millipore UK Ltd., Dundee, UK. Now Eurofins Scientific, Dundee, UK). All IC50 data were presented as the mean values.

IR (h) = biological target: T5, IR (h) (Homo sapiens, UniProt P06213); test: Kinase profile, IR; type: biochemical; details: mean ± S.D.
T5 construct: purchased Millipore (now Eurofins) KinaseProfiler / IC50 Profiler
Method: as §1

CDK7/cyclin H/MAT1 (h) = biological target: T6, CDK7/cyclin H/MAT1 (h) (Homo sapiens, UniProt P50613); test: Kinase profile, CDK7/cyclin H/MAT1; type: biochemical; details: mean ± S.D.
T6 construct: purchased Millipore (now Eurofins) KinaseProfiler / IC50 Profiler
Method: as §1

PKG1α (h) = biological target: T7, PKG1α (h) (Homo sapiens, UniProt Q13976); test: Kinase profile, PKG1α; type: biochemical; details: mean ± S.D.
T7 construct: purchased Millipore (now Eurofins) KinaseProfiler / IC50 Profiler
Method: as §1

CaMKIIβ (h) = biological target: T8, CaMKIIβ (h) (Homo sapiens, UniProt Q13554); test: Kinase profile, CaMKIIβ; type: biochemical; details: mean ± S.D.
T8 construct: purchased Millipore (now Eurofins) KinaseProfiler / IC50 Profiler
Method: as §1

VEGFR-1 = biological target: T9, VEGFR-1 (Homo sapiens, UniProt P17948); test: In vitro kinase assay, VEGFR-1; type: biochemical
T9 construct: purchased Millipore UK Ltd., Dundee, UK (now Eurofins Scientific); KinaseProfiler / IC50 Profiler service
Method: as §1

CDK2/cyclin A (h) = biological target: T10, CDK2/cyclin A (h) (Homo sapiens, UniProt P24941); test: Kinase profile, CDK2/cyclin A; type: biochemical; details: mean ± S.D.
T10 construct: purchased Millipore (now Eurofins) KinaseProfiler / IC50 Profiler
Method: as §1

HUVECs = test: VEGF-induced scratch wound migration assay; type: cell-based, human; details: VEGF 50 ng/mL, compound 0.5 μg/mL, 8 hours
Method: For the cell proliferation assays, cells were incubated overnight in endothelial basal media (EBM; Lonza, Walkersville, MD, USA) containing 0.5% FBS or supplemented with VEGF-A and/or VEGF inhibitors. The cells were washed with PBS and counted in 4 random microscope fields. The tube formation assay was performed by seeding cells on Matrigel-coated plates (BD Bioscience, Bedford, MA, USA) and incubating in EBM containing 0.5% FBS or supplemented with VEGF-A and/or VEGF inhibitors. After overnight incubation, tubule networks were quantified by measuring the tubule length in 4 random microscope fields. For the analysis of scratch wound migration, confluent cell monolayers grown on 6-well plates were scratched using a micropipette tip. After the plates were washed with PBS to remove dislodged cells and media, they were incubated with EBM containing 0.5% FBS or supplemented with VEGF and/or VEGF inhibitors for 8 hours. Cell migration was observed by optical microscopy and quantified by measuring the number of cells that had migrated from the wound edges.

FGFR1 = biological target: T11, FGFR1 (Homo sapiens, UniProt P11362); test: In vitro kinase assay, FGFR1; type: biochemical
T11 construct: purchased Millipore UK Ltd., Dundee, UK (now Eurofins Scientific); KinaseProfiler / IC50 Profiler service
Method: as §1

T11 sequence (P11362 22-822): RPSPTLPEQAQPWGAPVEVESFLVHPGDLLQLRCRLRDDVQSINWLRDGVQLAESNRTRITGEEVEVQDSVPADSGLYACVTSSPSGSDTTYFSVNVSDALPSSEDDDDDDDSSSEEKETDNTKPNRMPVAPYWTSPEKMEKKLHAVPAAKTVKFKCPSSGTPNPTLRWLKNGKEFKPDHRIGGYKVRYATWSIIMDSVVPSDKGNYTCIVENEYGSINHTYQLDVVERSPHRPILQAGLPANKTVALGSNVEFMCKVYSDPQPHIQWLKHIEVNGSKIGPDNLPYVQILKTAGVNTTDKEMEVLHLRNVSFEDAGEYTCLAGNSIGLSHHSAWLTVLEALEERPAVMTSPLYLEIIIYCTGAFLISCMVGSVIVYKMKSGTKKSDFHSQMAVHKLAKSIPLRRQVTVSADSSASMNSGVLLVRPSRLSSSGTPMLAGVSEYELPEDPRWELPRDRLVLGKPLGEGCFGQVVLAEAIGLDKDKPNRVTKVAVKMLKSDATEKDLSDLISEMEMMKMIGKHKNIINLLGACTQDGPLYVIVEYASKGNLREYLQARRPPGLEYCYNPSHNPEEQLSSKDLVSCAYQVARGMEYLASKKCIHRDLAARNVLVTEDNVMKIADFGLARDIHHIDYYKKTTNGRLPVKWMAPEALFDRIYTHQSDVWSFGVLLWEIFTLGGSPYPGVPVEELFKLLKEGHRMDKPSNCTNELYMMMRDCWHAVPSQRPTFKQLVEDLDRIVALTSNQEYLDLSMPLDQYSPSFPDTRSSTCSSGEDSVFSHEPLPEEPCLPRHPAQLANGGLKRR
T9 sequence (P17948 27-1338): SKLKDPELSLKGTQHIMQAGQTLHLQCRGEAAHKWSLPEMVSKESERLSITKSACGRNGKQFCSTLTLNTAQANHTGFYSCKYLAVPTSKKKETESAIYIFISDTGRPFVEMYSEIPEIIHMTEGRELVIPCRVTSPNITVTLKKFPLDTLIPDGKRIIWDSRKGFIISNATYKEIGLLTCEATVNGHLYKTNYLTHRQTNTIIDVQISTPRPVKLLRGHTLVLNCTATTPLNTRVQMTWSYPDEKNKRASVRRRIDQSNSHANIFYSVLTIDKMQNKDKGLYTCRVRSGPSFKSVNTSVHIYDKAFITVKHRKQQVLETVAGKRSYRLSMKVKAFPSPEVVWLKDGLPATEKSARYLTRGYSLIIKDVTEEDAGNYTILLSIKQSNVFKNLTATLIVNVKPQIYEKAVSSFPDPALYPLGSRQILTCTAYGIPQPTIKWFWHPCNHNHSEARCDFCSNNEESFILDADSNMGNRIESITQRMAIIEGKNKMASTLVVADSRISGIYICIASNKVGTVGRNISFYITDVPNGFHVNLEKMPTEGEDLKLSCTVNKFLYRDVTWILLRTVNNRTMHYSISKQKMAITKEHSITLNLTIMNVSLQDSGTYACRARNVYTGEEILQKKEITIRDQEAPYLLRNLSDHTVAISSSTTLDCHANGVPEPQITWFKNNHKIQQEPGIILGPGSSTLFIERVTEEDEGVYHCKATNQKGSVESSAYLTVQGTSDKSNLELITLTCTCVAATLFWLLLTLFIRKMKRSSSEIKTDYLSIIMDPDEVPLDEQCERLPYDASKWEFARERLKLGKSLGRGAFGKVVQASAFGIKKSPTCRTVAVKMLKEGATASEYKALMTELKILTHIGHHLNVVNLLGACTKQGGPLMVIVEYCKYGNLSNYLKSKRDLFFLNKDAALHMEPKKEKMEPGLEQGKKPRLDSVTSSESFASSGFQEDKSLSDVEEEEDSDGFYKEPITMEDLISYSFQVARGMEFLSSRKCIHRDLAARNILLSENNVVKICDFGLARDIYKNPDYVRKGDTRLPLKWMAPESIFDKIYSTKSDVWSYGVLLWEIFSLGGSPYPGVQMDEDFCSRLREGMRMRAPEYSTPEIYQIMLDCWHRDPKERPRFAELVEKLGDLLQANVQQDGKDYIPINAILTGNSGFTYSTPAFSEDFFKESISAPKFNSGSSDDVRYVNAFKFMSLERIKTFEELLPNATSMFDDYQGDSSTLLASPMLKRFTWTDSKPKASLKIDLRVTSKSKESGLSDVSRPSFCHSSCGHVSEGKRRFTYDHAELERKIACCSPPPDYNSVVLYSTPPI
Sequence of EGFR (P00533 25-1210): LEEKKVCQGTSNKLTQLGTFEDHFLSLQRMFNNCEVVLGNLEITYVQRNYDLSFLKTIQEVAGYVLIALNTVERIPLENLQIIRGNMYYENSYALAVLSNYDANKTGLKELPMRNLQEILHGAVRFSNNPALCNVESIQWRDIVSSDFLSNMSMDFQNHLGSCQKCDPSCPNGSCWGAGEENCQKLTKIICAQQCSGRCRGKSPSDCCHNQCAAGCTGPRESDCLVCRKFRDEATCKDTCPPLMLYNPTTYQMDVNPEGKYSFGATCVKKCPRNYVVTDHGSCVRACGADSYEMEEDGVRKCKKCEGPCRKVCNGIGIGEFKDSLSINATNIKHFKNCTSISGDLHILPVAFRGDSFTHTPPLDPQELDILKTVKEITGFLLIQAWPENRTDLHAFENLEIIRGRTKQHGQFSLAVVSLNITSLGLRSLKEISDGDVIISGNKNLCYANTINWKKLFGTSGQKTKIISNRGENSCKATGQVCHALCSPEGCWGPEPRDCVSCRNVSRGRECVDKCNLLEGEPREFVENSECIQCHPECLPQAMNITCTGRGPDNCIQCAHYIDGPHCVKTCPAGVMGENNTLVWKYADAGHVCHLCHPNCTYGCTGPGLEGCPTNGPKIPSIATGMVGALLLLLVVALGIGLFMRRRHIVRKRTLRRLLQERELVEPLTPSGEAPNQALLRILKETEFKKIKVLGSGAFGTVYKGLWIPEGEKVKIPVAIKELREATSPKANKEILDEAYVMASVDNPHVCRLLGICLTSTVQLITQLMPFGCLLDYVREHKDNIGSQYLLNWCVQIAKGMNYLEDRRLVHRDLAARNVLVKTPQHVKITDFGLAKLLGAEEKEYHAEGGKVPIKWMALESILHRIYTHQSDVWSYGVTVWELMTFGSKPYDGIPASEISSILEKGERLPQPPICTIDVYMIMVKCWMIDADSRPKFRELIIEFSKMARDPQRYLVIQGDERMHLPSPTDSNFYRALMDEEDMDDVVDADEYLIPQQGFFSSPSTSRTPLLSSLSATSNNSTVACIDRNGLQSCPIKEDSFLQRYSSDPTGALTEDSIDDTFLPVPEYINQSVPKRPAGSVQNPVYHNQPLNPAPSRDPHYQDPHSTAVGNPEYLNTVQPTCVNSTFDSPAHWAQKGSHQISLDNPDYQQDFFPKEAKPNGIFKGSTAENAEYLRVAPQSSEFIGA
T3 sequence (Q16566 whole entry): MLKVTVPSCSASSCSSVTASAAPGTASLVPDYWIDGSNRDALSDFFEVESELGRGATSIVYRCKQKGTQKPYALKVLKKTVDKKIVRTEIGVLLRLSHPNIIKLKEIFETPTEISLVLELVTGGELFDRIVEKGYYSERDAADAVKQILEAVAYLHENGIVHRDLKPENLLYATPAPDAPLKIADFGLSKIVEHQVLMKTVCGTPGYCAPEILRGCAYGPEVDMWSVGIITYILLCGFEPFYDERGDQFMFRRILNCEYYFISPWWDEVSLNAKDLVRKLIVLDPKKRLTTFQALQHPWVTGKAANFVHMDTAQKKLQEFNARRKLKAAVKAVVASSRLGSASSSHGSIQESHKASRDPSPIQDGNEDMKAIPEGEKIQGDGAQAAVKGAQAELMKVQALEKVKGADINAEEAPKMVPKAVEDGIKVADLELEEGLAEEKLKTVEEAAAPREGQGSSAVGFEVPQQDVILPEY
T6 sequence (P50613 whole entry): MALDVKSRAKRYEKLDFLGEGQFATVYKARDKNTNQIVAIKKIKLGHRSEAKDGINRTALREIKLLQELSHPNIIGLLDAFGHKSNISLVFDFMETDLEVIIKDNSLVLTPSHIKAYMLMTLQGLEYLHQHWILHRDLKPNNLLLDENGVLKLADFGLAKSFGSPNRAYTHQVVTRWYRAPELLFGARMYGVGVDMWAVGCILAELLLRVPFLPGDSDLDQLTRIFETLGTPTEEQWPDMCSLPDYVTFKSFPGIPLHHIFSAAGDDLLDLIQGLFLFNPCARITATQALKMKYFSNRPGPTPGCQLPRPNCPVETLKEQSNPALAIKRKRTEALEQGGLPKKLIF
T6 sequence (P51946 whole entry partner): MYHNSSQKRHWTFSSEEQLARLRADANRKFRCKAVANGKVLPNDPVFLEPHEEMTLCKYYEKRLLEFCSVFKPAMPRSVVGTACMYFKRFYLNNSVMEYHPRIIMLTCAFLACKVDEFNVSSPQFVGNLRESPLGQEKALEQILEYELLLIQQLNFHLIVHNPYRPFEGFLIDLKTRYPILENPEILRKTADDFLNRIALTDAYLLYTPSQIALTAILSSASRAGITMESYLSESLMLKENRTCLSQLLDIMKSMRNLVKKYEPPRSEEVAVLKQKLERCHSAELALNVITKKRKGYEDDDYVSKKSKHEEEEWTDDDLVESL
T6 sequence (P51948 whole entry partner): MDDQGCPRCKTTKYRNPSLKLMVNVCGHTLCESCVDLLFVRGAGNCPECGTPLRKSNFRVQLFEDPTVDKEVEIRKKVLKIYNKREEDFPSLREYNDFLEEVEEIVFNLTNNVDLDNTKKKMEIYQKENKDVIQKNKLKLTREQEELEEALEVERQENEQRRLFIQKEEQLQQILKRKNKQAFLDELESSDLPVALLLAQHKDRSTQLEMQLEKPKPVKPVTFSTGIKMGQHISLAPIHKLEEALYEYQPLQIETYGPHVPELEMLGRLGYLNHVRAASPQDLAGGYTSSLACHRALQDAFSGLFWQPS

Cc1ccc(Nc2nccc(N(C)c3ccc4[nH]ccc4c3)n2)cc1S(N)(=O)=O [MKP101]
inhibition at 1 µM (CDK9/cyclin T1 (h)): 54 ± 4%
inhibition at 1 µM (MAPK1 (h)): 4 ± 5%
inhibition at 1 µM (CaMKIV (h)): 0%
inhibition at 1 µM (AMPKα1 (h)): 0%
inhibition at 1 µM (EGFR; 1 μM, mean ± S.D., read-out: % inhibition at 1 μM, EGFR(h)): 96 ± 2%
IC50 (EGFR; in vitro kinase assay, mean values): 43 nM
inhibition at 1 µM (IR (h)): 14 ± 3%
inhibition at 1 µM (CDK7/cyclin H/MAT1 (h)): 16 ± 5%
inhibition at 1 µM (PKG1α (h)): 0%
inhibition at 1 µM (CaMKIIβ (h)): 17 ± 4%
inhibition at 1 µM (VEGFR-1; 1 μM, mean ± S.D., read-out: % inhibition at 1 μM, VEGFR-1 (h)): 99%
IC50 (VEGFR-1; in vitro kinase assay): 3 nM
inhibition at 1 µM (CDK2/cyclin A (h)): 12 ± 8%
Effect on VEGF-induced increase in migration (HUVECs): significantly inhibited
inhibition at 1 µM (FGFR1; 1 μM, mean ± S.D., read-out: % inhibition at 1 μM, FGFR1 (h)): 98 ± 1%
IC50 (FGFR1; in vitro kinase assay): 28 nM
